Tested on: CB1
Assay: [3H]-CP55940 binding competition at CB1
Design: species or system human
Conditions: FIG. 2c
Description: Fragments were amplified from total RNA of cell lines by reverse transcriptase-polymerase chain reaction (RT-PCR). Sequence was confirmed and the fragment was cloned into the EcoRI site of the pIRES2-eGFP-express vector. Cells were grown to approximately 80% confluence in 10 cm cell culture dishes, transfected with the cDNA pIRES-eGFP-vector containing the human CB1 or CB2 receptor using LipofectAMINE™ 2000 reagent in the serum-free media Opti-MEM 1 according to the manufacturer's description. Cells were subject to FACS sorting 48 his after transfection and single cell sorted based on dsRed expression into 96-well plates. Of the dsRed expressing positive clones, 3 were validated for CB1 and CB2 protein expression by radioligand binding analysis (methods discussed below).
Cells were grown to 90% confluence, rinsed twice with 1× PBS and stored at −80° C. until further use. To prepare crude cellular membrane fractions, dishes were removed from −80° C. and thawed at room temperature for 5 min. Once thawed, cells were lysed with ice-cold homogenization buffer (50 mM Tris, 1 mM EDTA, 3 mM MgCl2) and gently scraped from the dish. Total cell lysates from 3-5 dishes were collected on ice in 3 ml of ice-cold homogenization buffer Cells were homogenized at 6,500 rpm (PRO Scientific, Oxford, Conn.) twice for 10 sec and centrifuged at 11,500 rpm for 20 min at 4° C. […]

Question: How did the “competition for [3H]-CP55940 binding at CB1” value turn out when `CCn1c(C)c(C(=O)c2ccc(C)c3ccccc23)c2ccccc21` [ST-11] was run?
Answer: but not for [^3H]-CP55940 binding

Reference: US20150018369A1 (priority 2012, published 2015)
